PMC9220111, “Pharmacokinetics and Pharmacodynamics of Colistin Methanesulfonate in Healthy Chinese Subjects after Multi-Dose Regimen” (Antibiotics, 2022)
Entries after “also recorded” stand apart in the source; their conditions may differ. Read-outs that look alike come from different tables or passages of the source. Positions of bridges follow the written chain, without caps; N, C: chain ends. Non-standard residues stand in square brackets, D forms with d. Residues, ends and D or L forms follow the SMILES beside them. *: point of attachment. X1 = CC[C@H](C)CCCCC(=O)*; Dab = NCC[C@H](N)C(=O)O

Assays:
[1] = Early renal damage indicators, serum creatinine and urea; assay type: in vivo, human; conditions: Day8; individual subjects S01–S12, one line each; normal range 0.7-1.8 mg/L
Procedure: (§1) During the study, close observations and detailed records were kept in all subjects for clinical adverse events (AE), abnormal results of clinical laboratory tests and other specific examinations. The early renal damage indicators, including serum β2-microglobulin, serum Cysteine […] inhibitor C (Cystatin C), urine neutrophils gelatinase-associated lipocalin (NGAL) and urine β2-microglobulin, were tested at day 4 and day 8 after the start of drug administration.

[2] = Safety evaluation: clinical adverse events and laboratory tests; assay type: in vivo, human
Procedure: as §1

[3] = human, in vivo; cited from earlier work
[4] = Plasma pharmacokinetics of CMS and colistin after multi-dose intravenous infusions of CMS; conditions: for CLr: renal clearance; for Cmax: healthy Chinese subjects, UPLC-MS/MS; for AI (accumulation index): Day 7, after 7 consecutive days of CMS 2.5 mg/kg CBA i.v. q12 h; for clearance: CLt
Procedure: (§2) A single-center, open-label, multi-dose trial design was conducted following multiple intravenous administrations of CMS in 12 healthy Chinese subjects.
(§3) The dose regimen was 2.5 mg/kg CBA for 7 consecutive days with 12 h between each administration, except for one dose on day 1 (first dose) and day 7 (last dose). Each intravenous infusion time was 90 ± 10 min.
(§4) The blood samples were collected on day 1 and day 7 at pre-dose during intravenous infusion (30 min and 60 min after the start of intravenous infusion), immediately after the end of intravenous infusion (1.5 h) and at 1.75 h, 2 h, 2.5 h, 3.5 h, 5 h, 7 h, 9 h, 12 h, 16 h and 24 h after the start of intravenous infusion. From day 2 to day 6, blood samples were collected before and immediately after the end of infusion of the first dose. All blood samples were collected and transferred into an EDTA-K2 tube, and were then centrifuged at 3500 rpm for 10 min at 4 °C. Within 1 h after blood collection, the plasma samples were stored at −70 ± 10 °C until analysis [10].
(§5) The concentrations of CMS and colistin in plasma and urine samples were analyzed with a verified ultra-performance liquid chromatography tandem mass spectrometry method [30]. To determine the free colistin concentration, the matrix was alkalized with 5% ammonia at 0–4 °C, and CMS concentrations were obtained with acid hydrolysis, and then loaded onto the Oasis weak cation exchange 96-well plate (WCX, Waters, Milford, MA, USA). The standard curves of colistin A/colistin B for the plasma and urine samples ranged from 0.0446/0.0332–4.46/3.32 μg/mL to 0.0223/0.0166–2.23/1.66 μg/mL [10], respectively. The concentrations of colistin and CMS were determined as the major components of colistin A+ colistin B and colistin A methanesulfonate (CMS A) + colistin B methanesulfonate (CMS B), respectively.
(§6) The PK parameters of CMS and colistin in plasma were calculated by the non-compartment model [23] using the WinNonlin8.0 software (Pharsight, Mountain View, CA, USA). […] The urine excretion rate was calculated according to the correction of renal clearance (CLr). The PK parameters in urine samples calculated included interval urinary excretion rate, cumulative urinary excretion rate and CLr.
(§7) The PK parameters were expressed as average ± standard deviation (mean ± SD). The main PK parameters after the first and last doses were evaluated by paired t test (SAS 9.4, SAS Institute, Inc., Cary, NC, USA). p value ≤ 0.05 was considered as significant.

[5] = human, in vivo, iv
Procedure: as §2, §3, §4, §5, §6, §7

[6] = Urine excretion of CMS and colistin after multi-dose intravenous infusions of CMS; assay type: in vivo; conditions: human, 12 subjects, mean ± SD, read-out: Cumulative urine excretion rate within 0–24 h
Procedure: Urine samples (700 μL) were mixed with equal volume of 1% bovine serum albumin (BSA) prior and stored at −70 ± 10 °C until analysis.

[7] = cited from earlier work
Procedure: CMS in clinic has generally been expressed as the internationally accepted term of c ... || A new CMS formula was produced with a 4:1 ratio of CMS A:CMS B, and met the requirements of the European Pharmacopoeia EP9.2 [9]. […] The Cavg,ss (95% CI) was 0.92 (0.85, 0.99) μg/mL after 7 days of 2.5 mg/kg CBA every 12 h (q12 h) administration of this new formulation, as simulated by the obtained single-dose PK parameters. The purpose of this study was to investigate the PK characteristics of CMS and colistin in plasma and urine following multip ... || This study evaluated the applicability of CMS at the recommended dosing regimen (2.5 mg/kg CBA q12 h) for the first time in Chinese subjects.

[8] = system: extremely drug-resistant (XDR) P. aeruginosa; conditions: cited from earlier work
[9] = value used to calculate fAUC0–24; cited from earlier work
Procedure: The target values of fAUC0–24/MIC used in this study were from published PK/PD study reports of colistin, conducted on animal infection models. […] The free colistin fraction f used was 50% [6, 31]. AUC0–24,ss values from this study were calculated as 2 times AUC0–12 on day 7 based on the twi ...

[10] = 12 healthy Chinese subjects, CMS 2.5 mg/kg CBA i.v. q12 h 7 days
[11] = individual healthy Chinese subjects S01–S12, one line each, CMS 2.5 mg/kg CBA i.v. q12 h 7 days
[12] = Day 1 (first dose), CMS 2.5 mg/kg CBA i.v., mean ± SD, n = 12, SD
[13] = Day 1 (first dose), CMS 2.5 mg/kg CBA i.v., plasma, mean ± SD, n = 12, SD
[14] = Day 1 (first dose), CMS 2.5 mg/kg CBA i.v., mean ± SD, n = 12, day 1 urine stored without BSA, for reference only, SD
[15] = Day 7 (last dose), CMS 2.5 mg/kg CBA i.v. q12 h 7 days, mean ± SD, n = 12, SD
[16] = Day 7 (last dose, steady state), CMS 2.5 mg/kg CBA i.v. q12 h 7 days, plasma, mean ± SD, n = 12, SD
[17] = earlier CMS formula, CMS A:CMS B 1:2, healthy Chinese subjects
[18] = human, plasma, iv, 2.5 mg/kg CBA, SD
[19] = 33 patients with XDR P. aeruginosa UTIs

Colistin methanesulfonate [CMS]
serum β2-microglobulin [1]: 1.72 mg/L | Deaths or serious adverse events [2, 10]: No serious adverse events were observed; also recorded: No deaths or other serious adverse events occurred | Vital signs, QTc and electrocardiogram [2, 10]: No abnormal vital signs nor QTc prolongations or other clinically significant electrocardiogram abnormalities were found | Nephrotoxicity ([2]; 12 healthy Chinese subjects, CMS 2.5 mg/kg CBA i.v. q12 h 7 days, no increase in urine β2 microglobulin and urine NGAL): no nephrotoxicity was observed; also recorded: No obvious nephrotoxicity occurred | Subjects with adverse effects ([2]; 12 healthy Chinese subjects, after multi-dose i.v. infusions of CMS, all mild and transient): Eleven out of the twelve | Abnormality in Laboratory Test [2, 11]: Normal; also recorded: Decreased absolute value of neutrophils (2 days) | Clinical Adverse Event (Duration) [2, 11]: Facial itchiness (4 days and 12 h) Tongue numbness (5 days and 2 h) Dizziness (2 days and 16 h); also recorded: Facial itchiness (2 days and 3 h) Tongue numbness (5 days and 8 h); also recorded: Tongue numbness (6 days and 12 h) Lip numbness (5 days and 10 h) Sore throat (1 day and 23 h) Erythema (6 days and 13 h); also recorded: Normal; also recorded: Tongue numbness (5 days and 20 h) Dizziness (4 h); also recorded: Tongue numbness (5 days and 14 h); also recorded: Tongue numbness (5 days and 8 h) Dizziness (2 days and 13 h) Headache (1 day and 19 h) Lip numbness (1 day and 10 h) Skin itchiness (1 day and 20 h); also recorded: Tongue numbness (5 days and 20 h) Lip numbness (2 days and 15 h) Pharyngeal discomfort (5 days and 16 h) Facial numbness (4 days and 16 h) | incidence of nephrotoxicity [3]: 26.0–74.1% | CLt [4, 12]: 1.3 ± 0.33 mL/min/kg | Vd [4, 12]: 0.15 ± 0.03 L/kg | fm (fraction of CMS converted to colistin in the body) [4, 12]: 0.27 ± 0.12 | AUC0–12 [4, 13]: 53730 ± 9770 ng·h/mL | AUC0–24 [4, 13]: 53960 ± 9930 ng·h/mL | CLr [4, 14]: 1 ± 0.17 mL/min/kg | Cmax ([4]; Day 1 (first dose), CMS 2.5 mg/kg CBA i.v. infusion 90 min, plasma, non-compartment model, mean ± SD, n = 12, SD): 22200 ± 4380 ng/mL | fm (fraction of CMS converted to colistin in the body) [4, 15]: 0.45 ± 0.15 | CLr [4, 15]: 0.67 ± 0.33 mL/min/kg | CLt ([4]; Day 7 (last dose, steady state), CMS 2.5 mg/kg CBA i.v. q12 h 7 days, mean ± SD, n = 12, SD): 1.3 ± 0.33 mL/min/kg | Cavg,ss [4, 16]: 4410 ± 754 ng/mL | Cmin,ss [4, 16]: 133 ± 141 ng/mL | AI (accumulation index) ([4]; mean ± SD, n = 12, SD): 1.07 ± 0.10 | T1/2, median [5]: 1.72 h | half-life [5]: 1.52 h

CC[C@H](C)CCCCC(=O)N[C@@H](CCN)C(=O)N[C@H](C(=O)N[C@@H](CCN)C(=O)N[C@H]1CCNC(=O)[C@H]([C@@H](C)O)NC(=O)[C@H](CCN)NC(=O)[C@H](CCN)NC(=O)[C@H](CC(C)C)NC(=O)[C@@H](CC(C)C)NC(=O)[C@H](CCN)NC1=O)[C@@H](C)O [colistin] (X1-[Dab]T[Dab][Dab][Dab][dL]L[Dab][Dab]T; lactam 4-C)
dose excreted ([6]; after the first dose, CMS 2.5 mg/kg CBA i.v., day 1 urine stored without BSA, for reference only): 0.41 ± 0.28% | dose excreted ([6]; urine, 2.5 mg/kg CBA, after the last dose (steady state), CMS 2.5 mg/kg CBA i.v. q12 h 7 days): 1.22 ± 0.7% | plasma Cavg,ss of colistin ([7]; 51 critically ill patients with normal renal function (CLCr ≥ 80 mL/min), FDA-recommended dose 2.5–5 mg CBA/kg): 1.29 (0.45–5.28) μg/mL | median Cavg,ss concentration ([7]; 87 critically ill patients with CrCL >120 mL/min, loading dose 9 MIU then 4.5 MIU twice daily): 1.6 (0.4–4.8) μg/mL | median concentration (plasma Cavg,ss of colistin) ([7]; 214 patients with different renal functions): 2.35 (0.24–9.92) μg/mL | AUC0–12,ss [7, 17]: 9230 ± 1790 ng·h/mL | Cavg,ss [7, 17]: 760 ± 151 ng/mL | AUC0–12,ss ([7]; healthy Japanese subjects, CMS 2.5 mg/kg CBA i.v. twice a day for 2.5 days): 25700 ± 7490 ng·h/mL | Patients achieving Cavg,ss at ≥1 μg/mL ([7]; patients with normal renal function at the recommended doses of EMA and FDA): 65–75% | Cavg,ss (95% CI) ([7]; simulated from single-dose PK parameters, 7 days of 2.5 mg/kg CBA q12 h of the new formulation): 0.92 (0.85, 0.99) μg/mL | CLr [4, 14]: 0.013 ± 0.0067 mL/min/kg | CLr [4, 15]: 0.025 ± 0.012 mL/min/kg | Cavg,ss [4, 16]: 1270 ± 270 ng/mL | Cmin,ss [4, 16]: 670 ± 220 ng/mL | AI (accumulation index) ([4]; mean ± SD, n = 12, SD): 1.32 ± 0.06 | AUC(0-t) ([4]; human, plasma, iv, 2.5 mg/kg CBA, AUC0–12 (AUC0–12,ss), Day 7 (last dose, steady state), CMS 2.5 mg/kg CBA i.v. q12 h 7 days, plasma, mean ± SD, n = 12, SD): 15300 ± 3290 ng·h/mL | AUC(0-t) ([4]; human, plasma, iv, 2.5 mg/kg CBA, AUC0–12, Day 1 (first dose), CMS 2.5 mg/kg CBA i.v., plasma, mean ± SD, n = 12, SD): 9800 ± 1710 ng·h/mL | AUC(0-t) ([4]; human, plasma, iv, 2.5 mg/kg CBA, AUC0–24, Day 1 (first dose), CMS 2.5 mg/kg CBA i.v., plasma, mean ± SD, n = 12, SD): 12600 ± 2550 ng·h/mL | clearance ([4]; human, plasma, iv, 2.5 mg/kg CBA, Day 1 (first dose), CMS 2.5 mg/kg CBA i.v., mean ± SD, n = 12, SD): 3.5 mL/min/kg | clearance ([4]; human, plasma, iv, 2.5 mg/kg CBA, Day 7 (last dose, steady state), CMS 2.5 mg/kg CBA i.v. q12 h 7 days, mean ± SD, n = 12, SD): 3 mL/min/kg | Cmax ([4]; human, plasma, iv, 2.5 mg/kg CBA, Cmax, Day 1 (first dose), CMS 2.5 mg/kg CBA i.v. infusion 90 min, plasma, non-compartment model, mean ± SD, n = 12, SD): 1170 ± 180 ng/mL | Cmax ([4]; human, plasma, iv, 2.5 mg/kg CBA, Cmax, Day 7 (last dose, steady state), CMS 2.5 mg/kg CBA i.v. q12 h 7 days, plasma, mean ± SD, n = 12, SD): 1790 ± 370 ng/mL | half-life ([4]; human, plasma, iv, 2.5 mg/kg CBA, T1/2, Day 1 (first dose), CMS 2.5 mg/kg CBA i.v., plasma, mean ± SD, n = 12, SD): 5.15 ± 0.95 h | half-life ([4]; human, plasma, iv, 2.5 mg/kg CBA, T1/2, Day 7 (last dose), CMS 2.5 mg/kg CBA i.v. q12 h 7 days, plasma, mean ± SD, n = 12, SD): 5.9 ± 0.58 h | half-life ([4]; human, plasma, iv, 2.5 mg/kg CBA, T1/2, median, after the first dose, median, n = 12): 4.97 h | half-life ([4]; human, plasma, iv, 2.5 mg/kg CBA, T1/2, median, after the last dose, median, n = 12): 6.1 h | Tmax ([4]; human, plasma, iv, 2.5 mg/kg CBA, Day 1 (first dose), CMS 2.5 mg/kg CBA i.v., plasma, mean ± SD, n = 12, SD): 4.42 ± 0.9 h | Tmax ([4]; human, plasma, iv, 2.5 mg/kg CBA, Day 7 (last dose), CMS 2.5 mg/kg CBA i.v. q12 h 7 days, plasma, mean ± SD, n = 12, SD): 3.38 ± 0.68 h | Tmax ([4]; human, plasma, iv, 2.5 mg/kg CBA, median, after the first dose, median, n = 12): 5 h | Tmax ([4]; human, plasma, iv, 2.5 mg/kg CBA, median, after the last dose, median, n = 12): 3.5 h | Vd ([4]; human, plasma, iv, 2.5 mg/kg CBA, Vd, Day 1 (first dose), CMS 2.5 mg/kg CBA i.v., mean ± SD, n = 12, SD): 1.52 ± 0.22 L/kg | Vd ([4]; human, plasma, iv, 2.5 mg/kg CBA, Vd, Day 7 (last dose, steady state), CMS 2.5 mg/kg CBA i.v. q12 h 7 days, mean ± SD, n = 12, SD): 1.66 ± 0.25 L/kg | level at 48 h [4, 18]: 93 ± 42.8 ng/mL | level at 72 h [4, 18]: 632 ± 155 ng/mL | level at 96 h [4, 18]: 684 ± 177 ng/mL | level at 120 h [4, 18]: 738 ± 217 ng/mL | level at 144 h [4, 18]: 754 ± 238 ng/mL | AUC0–24/MIC [8, 19]: 60.5 ± 56.4 | fAUC0–24/MIC [8, 19]: 30.2 ± 28.2 | Cavg,ss ([8]; patients with XDR P. aeruginosa UTIs): 1.19 (0.21–5.20) μg/mL | free colistin fraction f [9]: 50%
